This note sets out measurements from ChEMBL document CHEMBL1132690, “Design, synthesis, and biological evaluation of potent thiazine- and thiazepine-based matrix metalloproteinase inhibitors” (J Med Chem, 1999).

In experiment [1] the target is T1, Matrilysin (Homo sapiens, UniProt P09237).
T1 sequence (P09237 whole entry): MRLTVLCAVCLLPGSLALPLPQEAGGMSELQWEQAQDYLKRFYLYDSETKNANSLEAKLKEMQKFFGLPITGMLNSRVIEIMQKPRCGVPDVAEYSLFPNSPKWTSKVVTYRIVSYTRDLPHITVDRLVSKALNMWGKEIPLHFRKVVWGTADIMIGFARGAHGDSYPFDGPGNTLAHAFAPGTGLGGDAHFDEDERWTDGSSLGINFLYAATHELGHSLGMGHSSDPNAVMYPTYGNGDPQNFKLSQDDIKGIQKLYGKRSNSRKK
Description: In vitro inhibitory activity against matrilysin (matrix metalloprotease-7).

The target in the next experiment is Collagenase 3 (Homo sapiens, UniProt P45452).
The next experiment deals with T2, Interstitial collagenase (Homo sapiens, UniProt P03956).
T2 sequence (P03956 whole entry): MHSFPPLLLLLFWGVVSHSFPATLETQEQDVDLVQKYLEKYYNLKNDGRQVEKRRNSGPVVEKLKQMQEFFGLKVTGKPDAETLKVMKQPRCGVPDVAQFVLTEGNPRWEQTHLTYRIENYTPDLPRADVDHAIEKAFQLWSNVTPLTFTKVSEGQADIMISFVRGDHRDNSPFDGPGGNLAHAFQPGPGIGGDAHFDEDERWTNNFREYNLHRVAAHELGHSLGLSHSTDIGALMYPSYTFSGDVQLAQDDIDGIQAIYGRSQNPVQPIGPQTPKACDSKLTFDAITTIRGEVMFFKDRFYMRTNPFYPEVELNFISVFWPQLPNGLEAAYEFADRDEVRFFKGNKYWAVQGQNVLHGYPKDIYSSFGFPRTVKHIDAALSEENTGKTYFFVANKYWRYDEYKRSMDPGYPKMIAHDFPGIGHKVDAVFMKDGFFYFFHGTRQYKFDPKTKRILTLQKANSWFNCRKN

Experiment [2] addresses 72 kDa type IV collagenase (Homo sapiens, UniProt P08253).
Description: In vitro inhibitory activity against gelatinase-A (matrix metalloprotease-2).
The target in another experiment is Neutrophil collagenase (Homo sapiens, UniProt P22894).
Experiment [3] addresses Matrix metalloproteinase-9 (Homo sapiens, UniProt P14780).
Description: Inhibition of gelatinase-B (Matrix metalloprotease-9)
The target in experiment [4] is T1, Matrilysin. This is another data set of the same source.
Description: Inhibition of matrilysin (Matrix metalloprotease-7)

Chain of Matrix metalloproteinase-9 (P14780 whole entry): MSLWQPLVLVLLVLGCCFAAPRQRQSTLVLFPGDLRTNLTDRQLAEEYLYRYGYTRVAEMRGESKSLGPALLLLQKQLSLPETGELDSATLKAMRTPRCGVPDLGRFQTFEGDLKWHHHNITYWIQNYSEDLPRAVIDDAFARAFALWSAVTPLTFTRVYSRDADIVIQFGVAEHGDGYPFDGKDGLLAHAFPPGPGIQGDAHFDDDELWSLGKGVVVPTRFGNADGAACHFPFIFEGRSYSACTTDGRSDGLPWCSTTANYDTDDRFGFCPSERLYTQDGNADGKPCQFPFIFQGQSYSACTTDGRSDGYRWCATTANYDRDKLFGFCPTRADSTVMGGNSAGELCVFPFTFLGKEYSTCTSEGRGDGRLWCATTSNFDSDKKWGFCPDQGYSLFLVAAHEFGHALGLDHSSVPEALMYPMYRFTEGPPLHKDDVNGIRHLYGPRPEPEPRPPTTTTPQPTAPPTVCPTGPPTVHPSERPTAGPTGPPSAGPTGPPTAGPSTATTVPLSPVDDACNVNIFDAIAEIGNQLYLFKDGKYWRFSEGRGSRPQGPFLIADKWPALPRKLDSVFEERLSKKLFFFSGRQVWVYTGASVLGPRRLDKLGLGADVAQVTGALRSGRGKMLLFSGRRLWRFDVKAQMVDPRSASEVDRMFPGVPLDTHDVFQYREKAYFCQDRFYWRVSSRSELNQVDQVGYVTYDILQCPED
Chain of 72 kDa type IV collagenase (P08253 whole entry): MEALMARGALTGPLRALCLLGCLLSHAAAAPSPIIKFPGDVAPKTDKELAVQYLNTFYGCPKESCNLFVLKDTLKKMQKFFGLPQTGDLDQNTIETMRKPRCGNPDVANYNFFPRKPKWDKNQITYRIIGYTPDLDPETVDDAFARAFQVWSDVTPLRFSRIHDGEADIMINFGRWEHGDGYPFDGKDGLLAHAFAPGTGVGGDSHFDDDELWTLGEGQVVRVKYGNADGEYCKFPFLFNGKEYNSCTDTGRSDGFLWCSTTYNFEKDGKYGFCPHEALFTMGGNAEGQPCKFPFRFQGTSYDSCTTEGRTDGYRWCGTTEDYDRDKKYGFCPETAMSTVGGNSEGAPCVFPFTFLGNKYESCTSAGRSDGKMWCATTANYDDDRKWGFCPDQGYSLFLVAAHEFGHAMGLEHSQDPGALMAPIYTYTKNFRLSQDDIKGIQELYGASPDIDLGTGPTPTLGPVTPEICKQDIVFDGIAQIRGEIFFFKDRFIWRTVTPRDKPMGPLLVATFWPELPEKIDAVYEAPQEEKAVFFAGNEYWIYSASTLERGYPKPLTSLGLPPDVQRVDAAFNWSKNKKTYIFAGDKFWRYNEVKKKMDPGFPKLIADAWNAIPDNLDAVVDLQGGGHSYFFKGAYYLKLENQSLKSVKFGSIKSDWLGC
Chain of Neutrophil collagenase (P22894 whole entry): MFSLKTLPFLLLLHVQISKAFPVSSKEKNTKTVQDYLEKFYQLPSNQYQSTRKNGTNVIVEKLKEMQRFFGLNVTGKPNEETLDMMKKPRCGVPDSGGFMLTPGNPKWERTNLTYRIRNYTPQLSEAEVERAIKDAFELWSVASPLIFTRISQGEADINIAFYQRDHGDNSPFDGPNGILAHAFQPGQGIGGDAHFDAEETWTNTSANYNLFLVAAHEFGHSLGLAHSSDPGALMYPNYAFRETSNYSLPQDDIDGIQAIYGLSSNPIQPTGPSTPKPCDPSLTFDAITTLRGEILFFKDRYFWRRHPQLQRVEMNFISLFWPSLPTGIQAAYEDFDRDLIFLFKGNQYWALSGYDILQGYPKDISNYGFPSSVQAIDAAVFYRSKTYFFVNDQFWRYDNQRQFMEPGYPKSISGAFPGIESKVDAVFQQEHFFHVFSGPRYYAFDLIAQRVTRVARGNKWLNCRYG
Description for Collagenase 3: In vitro inhibitory activity against collagenase-3 (matrix metalloprotease-13).
Description for Interstitial collagenase: In vitro inhibitory activity against truncated collagenase-1 (matrix metalloprotease-1).
Description for Neutrophil collagenase: Inhibition of neutrophil collagenase (Matrix metalloprotease-8)

For `COc1ccc(S(=O)(=O)N2CCCCCC2C(=O)NO)cc1` (stereo unspecified), the IC50 against Matrilysin [1] worked out at 895 nM; against Collagenase 3 it was 1.8 nM; against Interstitial collagenase, 49 nM.
`COc1ccc(S(=O)(=O)N2[C@@H](C(=O)NO)C(C)(C)SCC[C@H]2c2ccccc2)cc1`: the values for the half-inhibitory concentration (IC50) on Matrilysin [1] and against Interstitial collagenase were 54 nM and 236 nM, respectively.
As to `CC1(C)SCCCN(S(=O)(=O)c2ccc(Br)cc2)[C@H]1C(=O)NO`, the IC50 on Matrilysin [1] worked out at 17 nM; against Collagenase 3, 1.3 nM; in experiment [2], 6.8 nM; against Interstitial collagenase, 0.7 nM.
Turning to `COc1ccc(S(=O)(=O)N2CCOCCS(=O)(=O)C(C)(C)[C@@H]2C(=O)NO)cc1`, the IC50 stood at 183 nM against Matrilysin [1], 3.3 nM against Collagenase 3 and 1.9 nM at Interstitial collagenase.
In the case of `COc1ccc(S(=O)(=O)N2CCCS(=O)(=O)C(C)(C)[C@@H]2C(=O)NO)cc1`, the IC50 on Matrilysin [1] turned out to be 41 nM; at Neutrophil collagenase, 2.4 nM; at Collagenase 3, 2.1 nM; in experiment [2] it was 7.8 nM; in experiment [3] it was 3.6 nM.
`COc1ccc(S(=O)(=O)N2CCCC2C(=O)NO)cc1` (stereo unspecified): the IC50 on Interstitial collagenase is 297 nM.
`COc1ccc(S(=O)(=O)N2C[C@@H](O)CS(=O)(=O)C(C)(C)[C@@H]2C(=O)NO)cc1`: the IC50 against Collagenase 3 was found to be 1.3 nM; in experiment [2], 5.2 nM; against Interstitial collagenase, 1.9 nM.
`COc1ccc(S(=O)(=O)N2CSCC2C(=O)NO)cc1` (stereo unspecified) showed a 50% inhibitory concentration (IC50) against Interstitial collagenase of 638 nM.
For the compound `COc1ccc(S(=O)(=O)N2CCSCC2C(=O)NO)cc1` (stereo unspecified), the half-maximal inhibitory concentration (IC50) against Matrilysin [1] is 2070 nM; on Collagenase 3 it was 1 nM; against Interstitial collagenase, 62 nM.
With `COCOC1CSC(C)(C)[C@H](C(=O)NO)N(S(=O)(=O)c2ccc(OC)cc2)C1` (stereo partly specified), the figures for the 50% inhibitory concentration (IC50) (against Matrilysin [1]; against Collagenase 3; in experiment [2]) were 38 nM, 1.4 nM and 1.8 nM, respectively.
With `Cc1cc(Br)ccc1S(=O)(=O)N1CCCSC(C)(C)[C@@H]1C(=O)NO`, the IC50 at Matrilysin [1] was 354 nM; against Collagenase 3 it was 9.2 nM; in experiment [2], 24 nM; on Interstitial collagenase, 0.5 nM.
`COc1ccc(S(=O)(=O)N2CCCCC(C)(C)[C@@H]2C(=O)NO)cc1`: the IC50 against Matrilysin [1] was determined as 18 nM; against Neutrophil collagenase it was 1.9 nM; in experiment [2], 1.4 nM; in experiment [3], 0.5 nM; at Interstitial collagenase, 2.4 nM.
As for `CCCCOc1ccc(S(=O)(=O)N2CCCS(=O)(=O)C(C)(C)[C@@H]2C(=O)NO)cc1`, the IC50 worked out at 27 nM at Matrilysin [1], 0.4 nM at Collagenase 3, 1.2 nM in experiment [2] and 19 nM on Interstitial collagenase.
As for `COc1ccc(S(=O)(=O)N2CCCSCC2C(=O)NO)cc1` (stereo unspecified), the values for the IC50 at Matrilysin [1], on Collagenase 3 and at Interstitial collagenase were 1100 nM, 1.9 nM and 64 nM, respectively.
On the same counts, the results for `CCCCCc1ccc(S(=O)(=O)N2CCCSC(C)(C)[C@@H]2C(=O)NO)cc1` are 330 nM, 2.1 nM and 61 nM.
Regarding `CC1(C)SCCCN(S(=O)(=O)c2ccc(-c3ccccn3)s2)[C@H]1C(=O)NO`, the IC50 on Matrilysin [1] was 170 nM; against Collagenase 3, less than 0.2 nM; in experiment [2] it was 1 nM; on Interstitial collagenase it was 1 nM.
On to `COc1ccc(S(=O)(=O)N2CCS(=O)(=O)C(C)(C)[C@@H]2C(=O)NO)cc1`, for which the IC50 against Collagenase 3 came out at 4.3 nM; in experiment [2] it was 14 nM; on Interstitial collagenase, 13 nM.
Turning to `COc1ccc(S(=O)(=O)N2CCCSC[C@@]2(C)C(=O)NO)cc1`, the IC50 at Matrilysin [1] worked out at 17700 nM; against Collagenase 3, 4 nM; in experiment [2], 4.2 nM; against Interstitial collagenase, 217 nM.
As for `COc1ccc(S(=O)(=O)N2CCCSC(C)(C)C2C(=O)NO)cc1` (single isomer, unassigned), the half-maximal inhibitory concentration (IC50) against Matrilysin [1] was greater than 10000 nM; against Neutrophil collagenase it was 881 nM; on Collagenase 3 it was 2330 nM; in experiment [2], 2900 nM; in experiment [3] it was 1390 nM; at Interstitial collagenase, 7780 nM.
Take `CCCCOc1ccc(S(=O)(=O)N2CCCSC(C)(C)[C@@H]2C(=O)NO)cc1`: the IC50 stood at 2.3 nM against Collagenase 3, 1 nM in experiment [2] and 18 nM against Interstitial collagenase.
Take `COc1ccc(S(=O)(=O)N2[C@@H](c3ccccc3)CCSC(C)(C)[C@@H]2C(=O)NO)cc1`: the 50% inhibitory concentration (IC50) against Matrilysin [1] was 110 nM; against Interstitial collagenase, 271 nM.
For `COc1ccc(S(=O)(=O)N2CCS(=O)(=O)CC2C(=O)NO)cc1` (stereo unspecified), the IC50 was 12800 nM on Matrilysin [1], 18.4 nM on Collagenase 3 and 688 nM at Interstitial collagenase.
In the case of `CC1(C)SCCN(S(=O)(=O)c2ccc(Oc3ccncc3)cc2)[C@H]1C(=O)NO` [PRINOMASTAT], the 50% inhibitory concentration (IC50) was 91 nM against Matrilysin [1] and less than 0.4 nM on Neutrophil collagenase. The Ki on Matrilysin [4] worked out at 54 nM.
`COc1ccc(S(=O)(=O)N2CCSC(C)(C)[C@@H]2C(=O)NO)cc1`: the IC50 amounted to 23 nM on Matrilysin [1]; 1 nM at Collagenase 3; 1.4 nM in experiment [2]; 0.9 nM in experiment [3]; 0.4 nM on Interstitial collagenase.
Take `CCCc1ccc(S(=O)(=O)N2CCCSC(C)(C)[C@@H]2C(=O)NO)cc1`: the half-maximal inhibitory concentration (IC50) against Matrilysin [1] turned out to be 637 nM; against Collagenase 3, 7.5 nM; in experiment [2] it was 35 nM; on Interstitial collagenase, 22 nM.
With `COc1ccc(S(=O)(=O)N2CCCSC(C)(C)[C@@H]2C(=O)NO)cc1`, the concentration for half-maximal inhibition (IC50) turned out to be 30 nM against Matrilysin [1]; 1.4 nM on Neutrophil collagenase; 0.9 nM at Collagenase 3; 2.7 nM in experiment [2]; 1.9 nM in experiment [3]; 0.8 nM against Interstitial collagenase.
Regarding `COc1ccc(S(=O)(=O)N2CCNCC2C(=O)NO)cc1` (stereo unspecified), the IC50 against Matrilysin [1] is 2390 nM; on Collagenase 3, 1.7 nM; on Interstitial collagenase it was 175 nM.
On to `CC1(C)SCCCN(S(=O)(=O)c2ccc(Oc3ccncc3)cc2)[C@H]1C(=O)NO`, for which the concentration for half-maximal inhibition (IC50) is 105 nM against Matrilysin [1], less than 0.4 nM against Collagenase 3, less than 0.4 nM in experiment [2] and 5.7 nM on Interstitial collagenase.
As to `COc1ccc(S(=O)(=O)N2CCCCC2C(=O)NO)cc1` (stereo unspecified), the IC50 is 313 nM at Matrilysin [1] and 0.5 nM against Collagenase 3.
With `CC1(C)SCCCN(S(=O)(=O)c2ccc(-c3ccc(F)cc3)cc2)[C@H]1C(=O)NO`, the IC50 against Matrilysin [1] is less than 100 nM; on Collagenase 3, less than 1 nM; in experiment [2], 1.3 nM; on Interstitial collagenase, 2.9 nM.
Consider `COc1ccc(S(=O)(=O)N2CCOCCSC(C)(C)[C@@H]2C(=O)NO)cc1`, for which the 50% inhibitory concentration (IC50) was less than 100 nM against Matrilysin [1], 0.2 nM at Collagenase 3, 3.5 nM in experiment [2] and less than 1 nM on Interstitial collagenase.
In the case of `CC1(C)SCCCN(S(=O)(=O)c2ccc(Oc3ccccc3)cc2)[C@H]1C(=O)NO`, the concentration for half-maximal inhibition (IC50) on Matrilysin [1] was 16 nM; on Collagenase 3, less than 0.4 nM; at Interstitial collagenase, 2.3 nM.
Regarding `CC1(C)[C@H](C(=O)NO)N(S(=O)(=O)c2ccc(Br)cc2)CCCS1(=O)=O`, the 50% inhibitory concentration (IC50) against Matrilysin [1] turned out to be 79 nM; against Collagenase 3, 2.7 nM; in experiment [2] it was 20 nM; at Interstitial collagenase, 1.2 nM.
As to `COCCOc1ccc(S(=O)(=O)N2CCCSC(C)(C)[C@@H]2C(=O)NO)cc1`, the IC50 on Matrilysin [1] was 509 nM; against Collagenase 3 it was 5.6 nM; in experiment [2] it was 11.4 nM; at Interstitial collagenase, 42 nM.
Consider `COc1ccc(S(=O)(=O)N2CCCCCSC(C)(C)[C@@H]2C(=O)NO)cc1`, for which the IC50 at Matrilysin [1] was determined as 30 nM; against Neutrophil collagenase it was 0.6 nM; against Collagenase 3, 1 nM; in experiment [2], 2.4 nM; in experiment [3], 3.7 nM; at Interstitial collagenase it was 3 nM.
In the case of `COc1ccc(S(=O)(=O)N2CCOCC2C(=O)NO)cc1` (stereo unspecified), the concentration for half-maximal inhibition (IC50) at Collagenase 3 is 1 nM; on Interstitial collagenase, 49.5 nM.
